Measured values reported in PubChem BioAssay (NCI).
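Each compound was tested at five concentrations against cells in 96-well plates for 48 hours. GI50 = concentration required for 50% inhibition of growth. TGI marks complete inhibition of growth.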

What was measured:
Experiment in all cases: NCI tumour cell line growth inhibition, 48 h
LOX IMVI melanoma = system: LOX IMVI melanoma
T-47D breast = system: T-47D breast
SN12C renal = system: SN12C renal
SK-MEL-2 melanoma = system: SK-MEL-2 melanoma
SNB-75 CNS = system: SNB-75 CNS
HCT-15 colon = system: HCT-15 colon
U251 CNS = system: U251 CNS
NCI-H460 lung = system: NCI-H460 lung
MOLT-4 leukemia = system: MOLT-4 leukemia
SK-MEL-28 melanoma = system: SK-MEL-28 melanoma
PC-3 prostate = system: PC-3 prostate
KM12 colon = system: KM12 colon
NCI-H522 lung = system: NCI-H522 lung
HOP-92 NSCLC = system: HOP-92 NSCLC
RPMI-8226 leukemia = system: RPMI-8226 leukemia
DU-145 prostate = system: DU-145 prostate
OVCAR-5 ovarian = system: OVCAR-5 ovarian
HT29 colon = system: HT29 colon
NCI-H226 lung = system: NCI-H226 lung
CAKI-1 renal = system: CAKI-1 renal
TK-10 renal = system: TK-10 renal
786-0 renal = system: 786-0 renal
M14 melanoma = system: M14 melanoma
UACC-62 melanoma = system: UACC-62 melanoma
BT-549 breast = system: BT-549 breast
HL-60(TB) leukemia = system: HL-60(TB) leukemia
SK-OV-3 ovarian = system: SK-OV-3 ovarian
UO-31 renal = system: UO-31 renal
MCF7 breast = system: MCF7 breast
SW-620 colon = system: SW-620 colon
SR leukemia = system: SR leukemia
HCC-2998 colon = system: HCC-2998 colon
IGROV1 ovarian = system: IGROV1 ovarian
MDA-MB-435 = system: MDA-MB-435
SK-MEL-5 melanoma = system: SK-MEL-5 melanoma
SF-539 CNS = system: SF-539 CNS
EKVX NSCLC = system: EKVX NSCLC
SF-295 CNS = system: SF-295 CNS
ACHN renal = system: ACHN renal
UACC-257 melanoma = system: UACC-257 melanoma
A498 renal = system: A498 renal
HCT-116 colon = system: HCT-116 colon
MALME-3M melanoma = system: MALME-3M melanoma
K-562 leukemia = system: K-562 leukemia
HS 578T breast = system: HS 578T breast
MDA-MB-231 breast = system: MDA-MB-231 breast
NCI-H23 lung = system: NCI-H23 lung
RXF 393 renal = system: RXF 393 renal
HOP-62 NSCLC = system: HOP-62 NSCLC
OVCAR-4 ovarian = system: OVCAR-4 ovarian
SF-268 CNS = system: SF-268 CNS
OVCAR-3 ovarian = system: OVCAR-3 ovarian
A549 NSCLC = system: A549 NSCLC
OVCAR-8 ovarian = system: OVCAR-8 ovarian
NCI/ADR-RES ovarian = system: NCI/ADR-RES ovarian
CCRF-CEM leukemia = system: CCRF-CEM leukemia
SNB-19 CNS = system: SNB-19 CNS
COLO 205 colon = system: COLO 205 colon

## CN(C)c1cc2c(cc1Sc1nc3c(N)nccc3n1CCNCC(C)(C)C)OCO2
LOX IMVI melanoma
  GI50: 417 nM
  TGI: 4410 nM
T-47D breast
  GI50: 533 nM
  TGI: 31100 nM
SN12C renal
  GI50: 507 nM
  TGI: 25000 nM
SK-MEL-2 melanoma
  GI50: 1050 nM
  TGI: 16900 nM
SNB-75 CNS
  GI50: 1530 nM
  TGI: 19100 nM
HCT-15 colon
  GI50: 394 nM
  TGI: 14500 nM
U251 CNS
  GI50: 726 nM
  TGI: 14800 nM
NCI-H460 lung
  GI50: 376 nM
  TGI: 12100 nM
MOLT-4 leukemia
  GI50: 287 nM
  TGI: 3540 nM
SK-MEL-28 melanoma
  GI50: 621 nM
  TGI: 15600 nM
PC-3 prostate
  GI50: 615 nM
  TGI: 28800 nM
KM12 colon
  GI50: 305 nM
  TGI: 2790 nM
NCI-H522 lung
  GI50: 453 nM
  TGI: 14300 nM
HOP-92 NSCLC
  GI50: 334 nM
  TGI: 2490 nM
RPMI-8226 leukemia
  GI50: 658 nM
  TGI: 19400 nM
DU-145 prostate
  GI50: 732 nM
  TGI: 18500 nM
OVCAR-5 ovarian
  GI50: 1120 nM
  TGI: 28100 nM
HT29 colon
  GI50: 285 nM
  TGI: 11100 nM
NCI-H226 lung
  GI50: 1690 nM
  TGI: 19700 nM
CAKI-1 renal
  GI50: 591 nM
  TGI: 39700 nM
TK-10 renal
  GI50: 531 nM
  TGI: 19400 nM
786-0 renal
  GI50: 3890 nM
  TGI: 21400 nM
M14 melanoma
  GI50: 532 nM
  TGI: 15900 nM
UACC-62 melanoma
  GI50: 432 nM
  TGI: 5410 nM
BT-549 breast
  GI50: 4220 nM
  TGI: 25000 nM
HL-60(TB) leukemia
  GI50: 274 nM
  TGI: 850 nM
SK-OV-3 ovarian
  GI50: 394 nM
  TGI: 15200 nM
UO-31 renal
  GI50: 640 nM
  TGI: 19000 nM
MCF7 breast
  GI50: 311 nM
  TGI: 17900 nM
SW-620 colon
  GI50: 383 nM
  TGI: 13800 nM
SR leukemia
  GI50: 250 nM
  TGI: 12200 nM
HCC-2998 colon
  GI50: 805 nM
  TGI: 6030 nM
IGROV1 ovarian
  GI50: 560 nM
  TGI: 21600 nM
MDA-MB-435
  GI50: 426 nM
  TGI: 15400 nM
SK-MEL-5 melanoma
  GI50: 713 nM
  TGI: 13200 nM
SF-539 CNS
  GI50: 1450 nM
  TGI: 16300 nM
EKVX NSCLC
  GI50: 1340 nM
  TGI: 35200 nM
SF-295 CNS
  GI50: 444 nM
  TGI: 13600 nM
ACHN renal
  GI50: 573 nM
  TGI: > 59600 nM
UACC-257 melanoma
  GI50: 473 nM
  TGI: 11900 nM
A498 renal
  GI50: 1460 nM
  TGI: 10100 nM
HCT-116 colon
  GI50: 381 nM
  TGI: 13900 nM
MALME-3M melanoma
  GI50: 428 nM
  TGI: 4910 nM
K-562 leukemia
  GI50: 319 nM
  TGI: 11000 nM
HS 578T breast
  GI50: 2040 nM
  TGI: 23700 nM
MDA-MB-231 breast
  GI50: 585 nM
  TGI: 17100 nM
NCI-H23 lung
  GI50: 448 nM
  TGI: 22800 nM
RXF 393 renal
  GI50: 665 nM
  TGI: 15300 nM
HOP-62 NSCLC
  GI50: 2390 nM
  TGI: 22100 nM
OVCAR-4 ovarian
  GI50: 6170 nM
  TGI: 46200 nM
SF-268 CNS
  GI50: 1080 nM
  TGI: 22400 nM
OVCAR-3 ovarian
  GI50: 614 nM
  TGI: 15800 nM
A549 NSCLC
  GI50: 438 nM
  TGI: 18700 nM
OVCAR-8 ovarian
  GI50: 399 nM
  TGI: 15800 nM
NCI/ADR-RES ovarian
  GI50: 731 nM
  TGI: 24700 nM
CCRF-CEM leukemia
  GI50: 317 nM
  TGI: 18200 nM
SNB-19 CNS
  GI50: 1000 nM
  TGI: 24200 nM
COLO 205 colon
  GI50: 370 nM
  TGI: 11600 nM
